Experiment [1] addresses T1, human platelet membranes (3H-imipramine receptor) (Homo sapiens, UniProt P31645).
T1 construct: Fresh human platelet concentrates (less than 48 hours old) were obtained from the New York Blood Center; tissue New York Blood Center; host or cells: human blood platelets, membranes
Nature of the experiment: 3H-imipramine binding to human platelet membranes. The method, then:
The activity of the compounds of the invention as antidepressant agents was further verified# in the following test which measures the ability of a test compound to inhibit 3H-imipramine binding to human platelet membranes.
Platelet membranes were obtained using the procedure described by Wennogle, L. et al., Pharmac. Biochem. Behav., 15. 975 (1981). Fresh human platelet concentrates (less than 48 hours old) were obtained from the New York Blood Center. These concentrates were prepared in a citrate-dextrose anticoagulant using standard techniques. Platelets were washed twice by centrifugation (2500×G, 10 minutes) in 50 volumes of an antiprotease buffer containing 0.005M Tris potassium chloride, 0.12M sodium chloride, 0.05M Tris pH 7.5, 0.025 Units/ml aprotinin, 0.05 μg/m pepstatin, 2×10^-5 bacitracin, 3 mM ethylenediaminetetraacetic acid and 1.0 mM ethyleneglycol-bis (β-aminoethylether)N,N'-tetra-acetic acid. […] All procedures were conducted at 0° C. using plastic laboratory-ware throughout the platelet membrane preparation. Platelets were resuspended in 20 volumes of buffer and sonicated 3 times using 10 second bursts of a Branson sonifier (cell disrupter 350) at setting 6 (standard 3/4 inch horn), keeping the sample on ice throughout the procedure. Platelet membranes were then washed twice at 18,000×G for 20 minutes with 50 volumes of the antiprotease buffer and resuspended to 3.0 mg. protein/ml using the Bradford protein analysis with bovine gamma globulin as standard. Membranes were used immediately or stored frozen in liquid nitrogen.
The displacement of 3H-imipramine binding to human platelet membranes was performed essentially as described by Paul, S. M., et al., Life Sci., 953 (1980) with the following modifications. Membranes (0.3 mg protein) were suspended in antiprotease buffer with both […] 3H-imipramine (New England Nuclear) and displacing drug or buffer in a total volume of 250 #1 in glass test tubes. Samples were incubated for 90 minutes at 0° C., then diluted to 5 ml in 0.12M sodium chloride, 0.005M potassium chloride, 0.05M Tris pH 7.5 (wash buffer) and immediately filtered through GF/B Whatman Filters and washed twice with 5 ml of wash buffer. Filters were counted in a liquid scintillation counter after addition of Beckman HP Scintillant.
Non-specific binding of 3H-imipramine was defined as that fraction (generally 35%) of radioactivity that was not displaced by 10 μM desmethylimipramine. Specific binding was determined by subtraction of this non-specific level from values for total 3H-imipramine binding which were measured by incubating 3H-imipramine in the absence of displacing drug. Compounds were tested in duplicate test tubes at a concentration of 10 μM. Compounds which inhibited binding by more than 50% were considered to be active.

In experiment [2] the test system is Brain-Specific Receptors of Rats (3H-benzodiazepine binding). Nature of the experiment: Inhibition of the binding of 3H-benzodiazepine to brain-specific receptors of rats. Further details: species or system rat (Wistar strain, whole cortex). The settings on record: rat cortex P2 fraction, 3H-diazepam 1.5 nM or 3H-flunitrazepam 1.0 nM. The text has this: Another test utilized for the determination of anxiolytic activity is the measurement of the ability of a test compound to inhibit the binding of tritiated benzodiazepines to brain-specific receptors of mammals. A modification of the method described by R. F. Squires, et al., Nature, 266 (21), 732 (Apr., 1977) and H. Mohler, et al., Science, 198, 849 (1977) was employed. […] The test compounds were solubilized in dimethylformamide, acetic acid, ethanol or hydrochloric acid. […] (1) resuspended in twice the original volume in hypotonic 50 mM Tris.HCl (pH 7.4), or (2) resuspended in one-half the original volume in hypotonic 10 mM Tris.HCl (pH 7.4) and frozen (-20° C.) until time. of use. Frozen P2 preparations were thawed and resuspended in four times the original homogenizing volume at time of assay. […] Incubation for 30 minutes proceeded in ice and was terminated by filtration, under vacuum, through glass fiber filters. The filters were washed twice with 5 ml of ice-cold 50 mM Tris.HCl (pH 7.4) and placed in scintillation vials. After drying at 50°-60° C. for 30 minutes, 10 ml of diluent was added and the radioactivity determined in a scintillation counter. Inhibition of binding was calculated by the difference between total binding and binding in the presence of test compound, divided by the total binding, X 100.

In experiment [3] the test system is Spontaneously Hypertensive Rats. Nature of the experiment: Hypotensive activity: mean arterial blood pressure in spontaneously hypertensive rats. It is filed as in vivo, rat (Okamoto strain, male). The settings on record: SHR, gavage, 100 mg/kg or less, two doses 24 h apart, measured at 28 hours; average MABP of rats used 160±1.5 mm. The method, then: The novel compounds of the invention are active hypotensive agents at nontoxic doses when administered to mammals. These compounds were tested for hypotensive activity by the method of P. S. Chan and D. W. Poorvin, Clinical and Experimental Hypertension, (6), 817-830 (1979). Male, 16 week old, spontaneously hypertensive rats of the Okamoto strain (Taconic Farms, Germantown, N.Y.) having an average means arterial blood pressure of 160±1.5 mm of mercury are used in the test. A rat is dosed by gavage with a test compound, suspended in 2% pre-boiled starch at a concentration of 50 mg/ml, at a dose of 100 mg/kg of body weight or less, with 0.9% sodium chloride loading at a dose of 25 ml/kg of body weight. A second identical dose of the test compound, without sodium chloride loading is given 24 hours later. At 28 hours after the initial dose the mean arterial blood pressure is measured by the method of Chan and Poorvin vide supra.

The subject of experiment [4] is mice (hypoxic environment). The experiment is described as follows: Hypoxic survival test. It counts as in vivo, mouse (Royal Hart). The conditions noted are these: Mus musculus, ip, 5 min, intraperitoneal, 10% oxygen, 5 minutes, read-out: % Survivors. The method, then: The hypoxic survival test is a useful in vivo test for measuring the effectiveness of central nervous system-acting drugs in enhancing survival in an hypoxic environment relative to the known parasympathomimetic agent physostigmine.
Drugs are tested by intraperitoneal injection of groups of mice 30 minutes prior to placing them in an hypoxic environment and measuring survival. The rationale of this test is that drugs which enhance survival under hypoxic conditions without concomitant depression or sedative side effects, do so by enhancing brain metabolism, i.e., by improving energy supply relative to demand and so preserving normal brain function under conditions of reduced energy metabolism. Considering the dependence of the brain on a constant supply of energy, drugs which have this property may have many far-reaching therapeutic indications, including aiding recovery from stroke and closed head injury and reducing the deleterious effects of age-related central nervous system deficits.
In the hypoxic survival test, groups of 20 Royal Hart mice (6 weeks of age) were injected intraperitoneally with a test compound in saline at various doses ranging from 1 to 200 mg/kg, 30 minutes prior to placing them in an hypoxic mixture (10% oxygen, 90% […]) and measuring survival after 5 minutes.
A control group of 20 mice was injected intraperitoneally with saline (0.01 ml/g of body weight) and processed as described above.
Another group of 20 mice was injected intraperitoneally with 0.125 mg/kg of physostigmine in saline and processed as described above.

Structures are written as SMILES. Structures can show the parent of a compound that is named as a salt.

T1 sequence (P31645 whole entry): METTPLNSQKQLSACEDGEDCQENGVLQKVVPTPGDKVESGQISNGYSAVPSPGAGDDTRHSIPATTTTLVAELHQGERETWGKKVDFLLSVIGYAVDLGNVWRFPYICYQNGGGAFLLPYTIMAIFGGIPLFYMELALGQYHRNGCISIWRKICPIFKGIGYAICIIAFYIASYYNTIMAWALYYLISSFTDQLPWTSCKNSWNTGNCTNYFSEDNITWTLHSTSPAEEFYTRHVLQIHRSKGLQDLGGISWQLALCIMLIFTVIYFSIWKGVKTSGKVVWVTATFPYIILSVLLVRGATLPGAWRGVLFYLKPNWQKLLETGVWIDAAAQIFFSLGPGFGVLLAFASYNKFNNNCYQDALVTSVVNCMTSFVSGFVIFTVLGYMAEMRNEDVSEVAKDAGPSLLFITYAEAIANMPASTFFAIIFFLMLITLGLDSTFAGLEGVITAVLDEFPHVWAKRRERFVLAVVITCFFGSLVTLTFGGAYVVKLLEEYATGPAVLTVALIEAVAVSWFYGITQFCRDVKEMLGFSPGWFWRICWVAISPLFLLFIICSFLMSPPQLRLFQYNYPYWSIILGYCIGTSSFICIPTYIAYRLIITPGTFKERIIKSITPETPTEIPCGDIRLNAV

`N#Cc1cnn2c1N(C(=O)CCN1CCN(Cc3ccccc3)CC1)CC=C2c1cccc(C(F)(F)F)c1` [Example 27, 4,5-Dihydro-4-[1-oxo-3-[4-(phenylmethyl)-1-piperazinyl]propyl]-7-[3-(trifluoromethyl)phenyl]pyrazolo[1,5-a]pyrimidine-3-carbonitrile] showed an inhibition at 10 µM in experiment [1] of 80%.
Still for that read-out and setting: the figure for `CN(C)CCCN1CCN(CC(=O)N2CC=C(c3cccc(C(F)(F)F)c3)n3ncc(C#N)c32)CC1` [Example 33, 4-[[4-[3-(Dimethylamino)propyl]-1-piperazinyl]acetyl]-4,5-dihydro-7-[3-(trifluoromethyl)phenyl]pyrazolo[1,5-a]pyrimidine-3-carbonitrile] is 89%.
`N#Cc1cnn2c1N(C(=O)CN1CCN(CC(=O)N3CCOCC3)CC1)CC=C2c1cccc(C(F)(F)F)c1` [Example 36, 4,5-Dihydro-4-[[4-[2-(4-morpholinyl)-2-oxoethyl]-1-piperazinyl]acetyl]-7-[3-(trifluoromethyl)phenyl]pyrazolo[1,5-a]pyrimidine-3-carbonitrile]: the “% Inhibition (3H-benzodiazepine binding)” value in experiment [2] worked out at 41%. For the same molecule, the “MABP/mmHg (mean arterial blood pressure)” value in experiment [3] came out at 129 mmHg.
`CC(C)NC(=O)CN1CCN(CC(=O)N2CC=C(c3cccc(C(F)(F)F)c3)n3ncc(C#N)c32)CC1` [Example 37]: the “% Inhibition (3H-benzodiazepine binding)” value in experiment [2] worked out at 41%. Moreover, the “MABP/mmHg (mean arterial blood pressure)” value in experiment [3] was 129 mmHg.
Regarding `N#Cc1cnn2c1N(C(=O)CN1CCN(Cc3ccc(Cl)cc3)CC1)CC=C2c1cccc(C(F)(F)F)c1` [Example 39, 4-[[4-[(4-Chlorophenyl)methyl]-1-piperazinyl]acetyl]-7-[3-(trifluoromethyl)phenyl]pyrazolo[1,5-a]pyrimidine-3-carbonitrile], in experiment [1], the inhibition at 10 µM was determined as 84%.
On to `N#Cc1cnn2c1N(C(=O)CN1CCN(Cc3ccccc3)CC1)CCC2c1cccc(C(F)(F)F)c1` (stereo not drawn) [Example 46, 4,5,6,7-Tetrahydro-4-[[4-(phenylmethyl)-1-piperazinyl]acetyl]-7-[3-(trifluoromethyl)phenyl]pyrazolo[1,5-a]pyrimidine-3-carbonitrile], for which, in experiment [2], the “% Inhibition (3H-benzodiazepine binding)” value is 14%. For the same molecule, the responders at 100 mg/kg in experiment [4] (100 mg/kg) is 80%.
With `N#Cc1cnn2c1N(C(=O)CN1CCN(CCCOc3ccccc3)CC1)CCC2c1cccc(C(F)(F)F)c1` (stereo not drawn) [Example 57, 4,5,6,7-Tetrahydro-4-[[4-(3-phenoxypropyl)-1-piperazinyl]acetyl]-7-[3-(trifluoromethyl)phenyl]pyrazolo[1,5-a]pyrimidine-3-carbonitrile], at 10 µM the inhibition in experiment [1] was 57%. The responders at 10 mg/kg in experiment [4] (10 mg/kg) was 15%.
In turn, `N#Cc1cnn2c1N(C(=O)CCN1CCN(Cc3ccccc3)CC1)CC=C2c1cc(Cl)ccc1Cl` [Example 71, 7-(2,5-Dichlorophenyl)-4,5-dihydro-4-[1-oxo-3-[4-(phenylmethyl)-1-piperazinyl]propyl]pyrazolo[1,5-a]pyrimidine-3-carbonitrile] showed an inhibition at 10 µM in experiment [1] of 79%.
The same measure, in the same setting: the figure for `N#Cc1cnn2c1N(C(=O)CCN1CCN(Cc3ccc(Cl)cc3)CC1)CC=C2c1cccc(C(F)(F)F)c1` [Example 85, 4-[3-[(4-Chlorophenyl)methyl]-1-piperazinyl]-1-oxopropyl]dihydro-7-[3-(trifluoromethyl)phenyl]pyrazolo[1,5-a]pyrimidine-3-carbonitrile, dihydrochloride] is 85%.
On the same count and under the same terms, the figure for `CN(C)CCN1CCN(CC(=O)N2CC=C(c3cccc(C(F)(F)F)c3)n3ncc(C#N)c32)CC1` [Example 97, 4-[[4-[2-(Dimethylamino)ethyl]-1-piperazinyl]acetyl]4,5-dihydro-7-[3-(trifluoromethyl)phenyl]pyrazolo[1,5-a]pyrimidine-3-carbonitrile. dihydrochloride] is 72%.
Turning to `N#Cc1cnn2c1N(C(=O)CN1CCN(C(=O)Nc3ccccc3)CC1)CC=C2c1cccc(C(F)(F)F)c1` [Example 99, 4-[2-[3-Cyano-7-[3-(trifluoromethyl)phenyl]pyrazolo-[1,5-a]pyrimidin-4(5H)-yl]-2-oxoethyl]-N-phenyl-1-piperazinecarboxamide], the “% Inhibition (3H-benzodiazepine binding)” value in experiment [2] is on record as 24%. Moreover, the “MABP/mmHg (mean arterial blood pressure)” value in experiment [3] was determined as 125 mmHg.
On to `COc1ccc(Cl)cc1NC(=O)CN1CCN(CC(=O)N2CC=C(c3cccc(C(F)(F)F)c3)n3ncc(C#N)c32)CC1` [Example 100, N-(5-Chloro-2-methoxyphenyl)-4-[2-[3-cyano-7-[3-(trifluoromethyl)phenyl]pyrazolo[1.5-a]pyrimidin-4(5H)-yl]-2-oxoethyl]-1-piperazineacetamide], for which, in experiment [2], the “% Inhibition (3H-benzodiazepine binding)” value turned out to be 15%. In addition, the “MABP/mmHg (mean arterial blood pressure)” value in experiment [3] is on record as 139 mmHg.

As a reminder, the inhibition is the share of the control response that was lost under treatment. A lower inhibition goes with little suppression.
